Assay results reported in patent US20210085739A1, “ANTIPLATELET ACTIVITY OF THE ACANTHUS MOLLIS SEEDS' TOTAL EXTRACT AND ITS CONSTITUENTS” (priority 2017, published 2021).

Columns and labels:
[1] = test system: platelet aggregation induced by AA; assay: Light Transmittance Aggregometry in human PRP, agonist arachidonic acid (AA; 0.5 mM); format: cell-based; conditions: for inhibition of AA-induced platelet aggregation (FIG. 5A, 6A): each agent 1 mg/mL, combinations at mass ratios 1:1 or 1:1:1
Method: (§1) The effect of methanol extract on platelet aggregation in vitro was extensively studied in human Platelet Rich Plasma (PRP) from healthy volunteers, using Light Transmittance Aggregometry (LTA), as we previously described (Mitsios J V, et al. Eur J Biochem. 2004; 271:855-862). PRP was activated by arachidonic acid (AA; 0.5 mM), Thrombin Receptor Activating Peptide-6 (TRAP-6; 10 μM) and ADP (10 μM), as agonists. Samples were prepared by evaporating the methanol under nitrogen and then by dissolving the residue in DMSO. The maximal aggregation, achieved within 4 min after the addition of each agonist, was determined and expressed as a percentage of 100% light transmission calibrated for each specimen (% maximal aggregation). The inhibitory efficacy of the seeds extract expressed as IC50 value (half maximal inhibitory concentration). All values derived from at least three independent experiments performed for each platelet agonist, using 3 different methanol extract preparations (prepared as described above) and are expressed as the mean±standard deviation (S.D.). The final concentration of DMSO in each assay was 0.01% by volume.
(§2) Each fraction was dissolved in DMSO and used at a final concentration of 1 mg/mL. Standards of Verbascoside and Isoverbascoside were also dissolved in DMSO and used at a final concentration of 1 mg/mL. […] This concentration was not much lower to that of the total extract 0.25 mg/mL (as it would expected, since we used a purified fraction from the total extract that expresses the inhibitory activity towards AA-induced platelet aggregation). Therefore, we used a combination of fraction 1 with fraction 2 or 3 (at mass ratios of 1:1) or a combination of the 3 fractions (at mass ratios of 1:1:1).

[2] = test system: platelet aggregation induced by TRAP-6; assay: Light Transmittance Aggregometry in human PRP, agonist TRAP-6 (10 μM); format: cell-based; conditions: each agent 1 mg/mL, combinations at mass ratios 1:1 or 1:1:1
Method: as §1, §2
Next we evaluated the biological effect of the three fractions towards platelet aggregation induced by TRAP-6.

SMILES: C[C@@H]1O[C@@H](O[C@@H]2[C@@H](O)[C@H](OCCc3ccc(O)c(O)c3)O[C@H](CO)[C@H]2OC(=O)/C=C/c2ccc(O)c(O)c2)[C@H](O)[C@H](O)[C@H]1O [Verbascoside]
- inhibition of AA-induced platelet aggregation (FIG. 5A, 6A) [1]: do not inhibit platelet aggregation
- inhibition of TRAP-6-induced platelet aggregation (FIG. 5B, 6B) [2]: only Isoverbascoside inhibited platelet aggregation

SMILES: O=C1C(O[C@@H]2O[C@H](CO)[C@@H](O)[C@H](O)[C@H]2O)Oc2ccccc2N1O (stereo partly drawn) [fraction 1, 2-O-β-D-glucopyranosyl-4-hydroxy-1,4-benzoxazin-3-one]
- threshold concentration (the lower concentration that induces the maximum inhibitory effect), AA-induced platelet aggregation [1]: 0.2 mg/mL
- inhibition of AA-induced platelet aggregation (FIG. 5A, 6A) [1]: inhibited platelet aggregation
- inhibition of TRAP-6-induced platelet aggregation (FIG. 5B, 6B) [2]: no inhibitory activity

SMILES: C[C@@H]1O[C@@H](O[C@@H]2[C@@H](O)[C@H](OCCc3ccc(O)c(O)c3)O[C@H](COC(=O)/C=C/c3ccc(O)c(O)c3)[C@H]2O)[C@H](O)[C@H](O)[C@H]1O [Isoverbascoside]
- inhibition of AA-induced platelet aggregation (FIG. 5A, 6A) [1]: do not inhibit platelet aggregation
- inhibition of TRAP-6-induced platelet aggregation (FIG. 5B, 6B) [2]: inhibited platelet aggregation
